# In US11370773B1, “Inhibiting human integrin (alpha-4) (beta-7)” (Morphic Therapeutic, Inc., priority 2019, dated 2022):
# Target: T1, α4β7 (Homo sapiens, UniProt P13612+P26010)
# T1 construct: α4β7 expressing cells (RPMI-8866); endogenous in cells; host or cells: RPMI 8866
# T1 sequence (P13612 34-1032): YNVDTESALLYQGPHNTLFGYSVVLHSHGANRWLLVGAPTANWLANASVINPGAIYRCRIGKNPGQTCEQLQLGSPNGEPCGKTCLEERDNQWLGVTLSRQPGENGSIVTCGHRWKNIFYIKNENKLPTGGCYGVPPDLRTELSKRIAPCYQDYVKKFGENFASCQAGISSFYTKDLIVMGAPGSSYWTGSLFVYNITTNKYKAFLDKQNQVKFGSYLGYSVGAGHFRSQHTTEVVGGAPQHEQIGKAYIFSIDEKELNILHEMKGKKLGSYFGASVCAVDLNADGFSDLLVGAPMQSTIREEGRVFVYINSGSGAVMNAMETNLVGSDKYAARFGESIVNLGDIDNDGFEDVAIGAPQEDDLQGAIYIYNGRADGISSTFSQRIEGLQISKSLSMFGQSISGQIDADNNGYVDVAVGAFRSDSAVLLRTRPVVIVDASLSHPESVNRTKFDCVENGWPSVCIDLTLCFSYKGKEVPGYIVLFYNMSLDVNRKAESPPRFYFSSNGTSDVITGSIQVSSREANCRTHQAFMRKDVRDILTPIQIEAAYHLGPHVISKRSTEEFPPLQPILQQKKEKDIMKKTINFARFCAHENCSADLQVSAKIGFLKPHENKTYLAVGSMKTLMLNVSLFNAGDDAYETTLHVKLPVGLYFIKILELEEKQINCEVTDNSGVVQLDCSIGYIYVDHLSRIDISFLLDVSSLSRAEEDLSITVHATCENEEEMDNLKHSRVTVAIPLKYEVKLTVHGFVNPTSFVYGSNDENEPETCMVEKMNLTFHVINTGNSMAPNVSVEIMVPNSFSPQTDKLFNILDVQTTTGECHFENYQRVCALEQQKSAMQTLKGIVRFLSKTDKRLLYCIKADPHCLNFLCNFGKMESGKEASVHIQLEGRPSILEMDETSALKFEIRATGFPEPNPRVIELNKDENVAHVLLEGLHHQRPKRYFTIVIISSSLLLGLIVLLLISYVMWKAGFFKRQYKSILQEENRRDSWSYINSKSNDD
# T1 sequence (P26010 20-798): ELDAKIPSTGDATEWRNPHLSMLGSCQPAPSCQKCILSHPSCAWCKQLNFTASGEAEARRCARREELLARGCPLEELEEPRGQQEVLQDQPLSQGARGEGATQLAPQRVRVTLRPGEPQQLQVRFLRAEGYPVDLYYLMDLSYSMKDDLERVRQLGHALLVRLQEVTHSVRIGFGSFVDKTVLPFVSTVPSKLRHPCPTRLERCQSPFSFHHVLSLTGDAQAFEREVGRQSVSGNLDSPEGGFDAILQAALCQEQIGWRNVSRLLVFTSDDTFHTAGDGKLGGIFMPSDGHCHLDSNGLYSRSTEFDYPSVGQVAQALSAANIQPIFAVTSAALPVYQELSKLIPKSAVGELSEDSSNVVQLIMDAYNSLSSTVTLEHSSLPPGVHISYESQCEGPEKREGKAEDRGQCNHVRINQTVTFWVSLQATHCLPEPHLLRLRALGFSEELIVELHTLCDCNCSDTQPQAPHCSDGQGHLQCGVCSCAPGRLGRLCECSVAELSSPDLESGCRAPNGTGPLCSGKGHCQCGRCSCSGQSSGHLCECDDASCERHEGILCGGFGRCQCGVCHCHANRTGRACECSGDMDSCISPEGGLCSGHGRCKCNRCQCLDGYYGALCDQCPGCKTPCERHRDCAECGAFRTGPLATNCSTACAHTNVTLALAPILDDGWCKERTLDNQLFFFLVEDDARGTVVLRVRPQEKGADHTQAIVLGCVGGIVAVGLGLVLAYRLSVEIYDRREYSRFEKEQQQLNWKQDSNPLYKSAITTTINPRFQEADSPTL
# Test: Cell-based ligand binding assay (LBA), RPMI 8866 cells in competition with soluble MAdCAM-1-Fc
# Conditions: MAdCAM-1-Fc Dylight 650, flow cytometry, read-out: LB Assay (Example 6) IC50
# Experimental: Three in vitro assays were used to examine the α4β7 mechanistic process used by cells: 1) ligand:receptor affinity, 2) the avidity of those interactions on a cell's surface, and 3) how those interactions fare under an imposing force. In Example 5, a Fluorescence Polarization (FP) assay is used to measure compound activity through binding competition with the fluorescein-labeled peptide. In Example 6, the potency of compounds against α4β7 is measured in the cell-based ligand binding assay (LBA), using RPMI 8866 cells incubated with the compound samples in competition with soluble MAdCAM-1 ligand. In Example 7, activity of compounds is evaluated in a cell adhesion assay that mechanistically tests what occurs in vivo when trafficking cells utilize α4β7 to adhere to MAdCAM-1 expressing HEVs of the gut during the extravasation process. In the cell adhesion assay of Example 7, a MAdCAM1-(Fc) is coated on plastic, and α4β7 expressing cells (RPMI-8866) are allowed to adhere to the coated surface in the presence of the test compounds. Next, the force of washing with buffer is applied to cells thereby testing the strength of that adhesion. Unattached cells are removed and the remaining adherent cells are quantified.
# 5 ul of 33 nM MAdCAM-1-Fc fluorescently labeled with Dylight 650 in 50 mM HEPES pH 7.3, 150 mM sodium chloride, and 1% bovine serum albumin was added to the cells. The samples were incubated for 45 minutes at room temperature, fixed with 0.8% formaldehyde for 30 minutes at room temperature, and washed with 50 mM Tris pH 7.5, 150 mM NaCl, 1 mM EDTA, and 1% bovine serum albumin. Fluorescence intensity for each cell was measured via flow cytometry. Dead cells were excluded from further analysis based on staining with the 780 fixable viability dye. Median fluorescence intensity for Dylight 650 was determined for each sample and concentration-response curves were analyzed for IC50 values using 4-parameter non-linear regression analysis.
row,Structure (SMILES),IC50 [nM]
1,"Cc1cc(-c2c(C)ccc(F)c2C)cc([C@H](CC(=O)O)NC(=O)C(CC(C)C)n2cc(CCN3CCC3)c(C(F)(F)F)cc2=O)c1F (single isomer, unassigned) [AF-P2]",≤ 10
2,"Cc1ccn([C@@H](NC(C)C)C(=O)N[C@@H](CC(=O)O)c2cncc(-c3c(C)cccc3C)c2)c(=O)c1 [Example C-7, reference compound]",≤ 10
3,"Cc1ccn([C@@H](CC(C)C)C(=O)N[C@H](CC(=O)O)c2cncc(-c3c(C)cccc3C)c2)c(=O)c1 [Example C-28, reference compound]",10 to 500
4,"Cc1ccc(F)c(C)c1-c1cc(C2CC2)c(F)c([C@H](CC(=O)O)NC(=O)[C@H](CC(C)C)n2cc(CCN3CCC3)c(C(F)(F)F)cc2=O)c1F [HH-P2, (3S)-3-(2-(5-(2-(azetidin-1-yl)ethyl)-2-oxo-4-(trifluoromethyl)pyridin-1(2H)-yl)-4-methylpentanamido)-3-(5-cyclopropyl-2,3′,4-trifluoro-2′,6′-dimethyl-[1,1′-biphenyl]-3-yl)propanoic Acid]",≤ 10
5,"Cc1cc(C)c(-c2cc(C3CC3)c(F)c([C@H](CC(=O)O)NC(=O)[C@H](CC(C)C)n3cc(CCN4CCC4)c(C(F)(F)F)cc3=O)c2F)c(C)c1 [HM-P2, (3S)-3-(2-(5-(2-(azetidin-1-yl)ethyl)-2-oxo-4-(trifluoromethyl)pyridin-1(2H)-yl)-4-methylpentanamido)-3-(5-cyclopropyl-2,4-difluoro-2′,4′,6′-trimethylbiphenyl-3-yl)propanoic Acid]",≤ 10
6,"Cc1cc(C2CC2)cc(C)c1-c1cc(C(F)(F)F)c(F)c([C@H](CC(=O)O)NC(=O)[C@H](CC(C)C)n2cc(CCCN(C)C)c(C(F)(F)F)cc2=O)c1F [HU-P2, (3S)-3-(4′-cyclopropyl-2,4-difluoro-2′,6′-dimethyl-5-(trifluoromethyl)-[1,1′-biphenyl]-3-yl)-3-(2-(5-(3-(dimethylamino)propyl)-2-oxo-4-(trifluoromethyl)pyridin-1(2H)-yl)-4-methylpentanamido)propanoic Acid]",10 to 500
7,"Cc1cc(F)cc(C)c1-c1cc(C(F)(F)F)c(F)c([C@H](CC(=O)O)NC(=O)[C@H](CC(C)C)n2cc(CCCN(C)C)c(C(F)(F)F)cc2=O)c1F [HW-P2, (3S)-3-(2-(5-(3-(dimethylamino)propyl)-2-oxo-4-(trifluoromethyl)pyridin-1(2H)-yl)-4-methylpentanamido)-3-(2,4,4′-trifluoro-2′,6′-dimethyl-5-(trifluoromethyl)-[1,1′-biphenyl]-3-yl)propanoic Acid]",≤ 10
8,"Cc1cc(C)c(-c2cc(C(F)(F)F)c(F)c([C@H](CC(=O)O)NC(=O)[C@H](CC(C)C)n3cc(CCCN(C)C)c(C(F)(F)F)cc3=O)c2F)c(C)c1 [HZ-P2, (3S)-3-(2,4-difluoro-2′,4′,6′-trimethyl-5-(trifluoromethyl)biphenyl-3-yl)-3-(2-(5-(3-(dimethylamino)propyl)-2-oxo-4-(trifluoromethyl)pyridin-1(2H)-yl)-4-methylpentanamido)propanoic Acid]",10 to 500
9,"Cc1cc(-c2c(C)cc(F)cc2C)cc([C@H](CC(=O)O)NC(=O)[C@H](CC(C)C)n2cc(CCN(C)C)cc(C(F)F)c2=O)c1F [I-P2, (3S)-3-(4,4′-difluoro-2′,5,6′-trimethyl-[1,1′-biphenyl]-3-yl)-3-(2-(3-(difluoromethyl)-5-(2-(dimethylamino)ethyl)-2-oxopyridin-1(2H)-yl)-4-methylpentanamido)propanoic Acid]",≤ 10
10,"Cc1cc(C)c(-c2cc(C(F)(F)F)c(F)c([C@H](CC(=O)O)NC(=O)[C@H](CC(C)C)n3cc(CCN(C)C)c(C(F)(F)F)cc3=O)c2F)c(C)c1 [IF-P2, (3S)-3-(2,4-difluoro-2′,4′,6′-trimethyl-5-(trifluoromethyl)-[1,1′-biphenyl]-3-yl)-3-(2-(5-(2-(dimethylamino)ethyl)-2-oxo-4-(trifluoromethyl)pyridin-1(2H)-yl)-4-methylpentanamido)propanoic Acid]",10 to 500
11,"Cc1cc(C)c(-c2cc(C(F)(F)F)c(F)c([C@H](CC(=O)O)NC(=O)[C@H](CC(C)C)n3cc(CCN4CCC4)c(C(F)(F)F)cc3=O)c2F)c(C)c1 [IG-P2, (3S)-3-(2-(5-(2-(azetidin-1-yl)ethyl)-2-oxo-4-(trifluoromethyl)pyridin-1(2H)-yl)-4-methylpentanamido)-3-(2,4-difluoro-2′,4′,6′-trimethyl-5-(trifluoromethyl)biphenyl-3-yl)propanoic Acid]",10 to 500
12,"Cc1cc(C)c(-c2cc(C)c(F)c([C@H](CC(=O)O)NC(=O)[C@H](CC(C)C)n3cc(CCCN(C)C)c(C(F)(F)F)cc3=O)c2F)c(C)c1F [IW-P2, (3S)-3-(2-(5-(3-(dimethylamino)propyl)-2-oxo-4-(trifluoromethyl)pyridin-1(2H)-yl)-4-methylpentanamido)-3-(2,3′,4-trifluoro-2′,4′,5,6′-tetramethyl-[1,1′-biphenyl]-3-yl)propanoic Acid]",10 to 500
13,"Cc1cc(F)c(C)c(C)c1-c1cc(C(F)(F)F)c(F)c([C@H](CC(=O)O)NC(=O)[C@H](CC(C)C)n2cc(CCN3CCC3)c(C(F)(F)F)cc2=O)c1F [KT-P2, (3S)-3-(2-(5-(2-(azetidin-1-yl)ethyl)-2-oxo-4-(trifluoromethyl)pyridin-1(2H)-yl)-4-methylpentanamido)-3-(2,4,4′-trifluoro-2′,3′,6′-trimethyl-5-(trifluoromethyl)-[1,1′-biphenyl]-3-yl)propanoic Acid]",10 to 500
